Read-outs that look alike come from different tables or passages of the source.
Legend:
[1] = in vivo pharmacokinetics in male ICR mice, IV and PO; parameters: species or system mouse (male ICR mice); conditions: for clearance / half-life / AUC: mouse plasma; for clearance: read-out: intravenous injection administration (IV) C1; for AUC: read-out: Oral administration by gavage (PO) AUC; for bioavailability: plasma, mouse, PO 2 mpk, IV 1 mpk
Source text: This example relates to the evaluation of the pharmacokinetic properties of (hetero)aryl imidazole compounds containing an aromatic substituent. Specifically, this experiment evaluated the in vivo pharmacokinetic properties of some of the (hetero)aryl imidazole compounds with an aromatic substituent synthesized in Example 1 in mice under intravenous (IV) and oral (PO) administration.
The animals used in this experiment were male ICR mice, which were obtained from Beijing Weitonglihua Experimental Animal Technology Co., Ltd. IV/PO administration was performed with a single drug or a combination of drugs (Cassette, no more than five drugs), the solvent was 5% DMSO+10% Solutol+85% Saline, the compound concentration was 0.2 mg/mL, and the IV/PO administration volume was 5/10 mL/kg, respectively. The animals in the oral administration group were fasted overnight before administration and fed 4 hours after administration. After administration, blood was collected from the cheek at the set time of the experiment. About 50 μL was collected for each sample and anticoagulated with sodium heparin. After collection, the blood was placed on wet ice and centrifuged within 1 hour to separate the plasma (6000 rpm, 3 minutes, 2-8° C.). Plasma samples were stored at −80° C. before analysis. The plasma samples were diluted and analyzed by LC-MS/MS to determine the blood drug concentration data in the samples at different time points, and Phoenix WinNonlin 8.2.0 was used to calculate the pharmacokinetic parameters.

[2] = biological target: T1, soluble epoxide hydrolase (sEH) (Homo sapiens, UniProt P34913); assay: in vitro biochemical activity test, sEH enzyme inhibition with EET substrate (LC-MS); conditions: 90 min pre-incubation at room temperature, 60 min reaction
T1 sequence (P34913 1-555): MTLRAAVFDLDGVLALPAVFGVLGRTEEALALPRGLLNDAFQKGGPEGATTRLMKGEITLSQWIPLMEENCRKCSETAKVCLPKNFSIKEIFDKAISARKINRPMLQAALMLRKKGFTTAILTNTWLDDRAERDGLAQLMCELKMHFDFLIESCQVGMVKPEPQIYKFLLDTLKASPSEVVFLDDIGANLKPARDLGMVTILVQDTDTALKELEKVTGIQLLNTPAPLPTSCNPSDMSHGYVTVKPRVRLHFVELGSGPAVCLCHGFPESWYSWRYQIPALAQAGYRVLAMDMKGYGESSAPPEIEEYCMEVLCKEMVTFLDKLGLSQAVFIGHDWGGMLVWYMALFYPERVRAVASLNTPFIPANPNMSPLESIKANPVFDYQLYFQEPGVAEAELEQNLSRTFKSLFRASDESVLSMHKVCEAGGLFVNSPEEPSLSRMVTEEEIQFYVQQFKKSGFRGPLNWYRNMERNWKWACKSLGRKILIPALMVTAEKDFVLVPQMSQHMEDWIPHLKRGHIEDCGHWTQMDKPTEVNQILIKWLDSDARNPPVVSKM

[3] = 1 mg/kg, IV, 1 mpk, read-out: intravenous injection administration (IV) T1/2 (converted)
[4] = 2 mg/kg, PO, 2 mpk, read-out: Oral administration by gavage (PO) T1/2 (converted)

Row | clearance ([1]; 1 mg/kg, IV, 1 mpk) [mL/min/kg] | half-life [1, 3] [h] | AUC ([1]; 2 mg/kg, PO, 2 mpk) [ng·h/mL] | half-life [1, 4] [h] | bioavailability ([1]; 2 mg/kg) [%] | IC50 [2] [pM] | Compound
1 | 1 | 8.5 | 26100 | 10.2 | 83 | – | Nc1cc(Cl)c(-c2cc3[nH]c(-c4ccc(C(F)(F)F)cc4)nc3cc2F)cn1 [Compound 61, 2-(4-(trifluoromethyl)phenyl)-6-(6-amino-4-chloropyridin-3-yl)-5-fluoro-1H-benzo[d] imidazole]
2 | 1.3 | 5.9 | 19600 | 6.4 | 76 | 65 | Cc1nc(N)ncc1-c1cc2nc(-c3ccc(C(F)(F)F)cc3)[nH]c2c(F)c1F [Compound 8, 5-(4,5-difluoro-2-(4-(trifluoro-methyl)phenyl)-1H-benzo[d]imidazol-6-yl)-4-methylpyr-imidine-2-amine]

Source: US20260297065A1, “AROMATIC SUBSTITUENT-CONTAINING (HETERO) ARYL-IMIDAZOLE COMPOUND, AND PREPARATION METHOD THEREFOR AND USE THEREOF” (OPEN SOURCE THERAPEUTICS, priority 2022, published 2026)
